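Method: 48-hour compound exposure of cells in 96-well plates, five concentrations, linear interpolation of endpoints. GI50 marks 50% less growth. Definition used: TGI = concentration required for complete inhibition of growth.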
How the values were obtained:
Assay in all cases: inhibition of tumour cell growth, NCI panel, 48 h
MALME-3M melanoma = tested on: MALME-3M melanoma
HOP-92 NSCLC = tested on: HOP-92 NSCLC
RPMI-8226 leukemia = tested on: RPMI-8226 leukemia
OVCAR-8 ovarian = tested on: OVCAR-8 ovarian
SK-MEL-5 melanoma = tested on: SK-MEL-5 melanoma
M14 melanoma = tested on: M14 melanoma
KM12 colon = tested on: KM12 colon
UACC-62 melanoma = tested on: UACC-62 melanoma
LOX IMVI melanoma = tested on: LOX IMVI melanoma
SR leukemia = tested on: SR leukemia

Row | Compound | TGI (MALME-3M melanoma) [µM] | TGI (HOP-92 NSCLC) [µM] | TGI (RPMI-8226 leukemia) [µM] | TGI (OVCAR-8 ovarian) [µM] | TGI (SK-MEL-5 melanoma) [µM] | TGI (M14 melanoma) [µM] | TGI (KM12 colon) [µM] | TGI (UACC-62 melanoma) [µM] | TGI (LOX IMVI melanoma) [µM] | TGI (SR leukemia) [µM] | GI50 (MALME-3M melanoma) [µM] | GI50 (HOP-92 NSCLC) [µM] | GI50 (RPMI-8226 leukemia) [µM] | GI50 (OVCAR-8 ovarian) [µM] | GI50 (SK-MEL-5 melanoma) [µM] | GI50 (M14 melanoma) [µM] | GI50 (KM12 colon) [µM] | GI50 (UACC-62 melanoma) [µM] | GI50 (LOX IMVI melanoma) [µM] | GI50 (SR leukemia) [µM]
1 | NC(N)=NS(=O)(=O)c1ccc(NC(=O)c2cccn3c(=O)c4ccccc4nc23)cc1 | > 100 | > 100 | 65.1 | > 100 | > 100 | > 100 | 36 | > 100 | > 100 | 84.3 |  |  |  |  |  |  |  |  |  | 
2 | CCC1CCC2C3CC=C4CC(OC(C)=O)C(N)CC4(C)C3CCC12C (centres undefined) | 8.33 | 10.8 | 8.3 | 6.75 | 3.7 | 3.6 | 8.64 | 9.32 | 4.12 | 6.07 |  |  |  |  |  |  |  |  |  | 
3 | CC/C=C\C[C@H](O)C/C=C1/C(=O)C=C[C@@H]1C/C=C\CCCC(=O)OCCS(=O)(=O)c1ccccc1 | 22.3 | 19.4 | 8.25 | 15.3 | 4.06 | 13.7 | 6.05 | 6.29 | 3.66 | 13.2 | 6.71 | 6.87 | 2.7 | 4.07 | 1.99 | 3.67 | 2.09 | 2.48 | 1.44 | 2.87
4 | CN(C)c1ccc(/C=N/NC(=O)CSc2nc3sc4c(c3c(=O)n2-c2ccccc2)CCCCC4)cc1 | > 100 | 29 | > 100 | > 100 | > 100 | > 100 | > 100 | > 100 | > 100 | > 100 | 3.45 | 3.55 | > 100 | 4.83 | 3.44 | 8.26 | > 100 | 4.04 | 3.05 | 3
5 | NNC(=O)C(O)C(O)C(O)CO (centres undefined) | > 100 | > 100 | > 100 | > 100 | > 100 | > 100 | > 100 | > 100 | > 100 | > 100 |  |  |  |  |  |  |  |  |  | 
6 | OCC(O)C(O)C(O)c1nn[nH]n1 (centres undefined) | > 100 | > 100 | > 100 | > 100 | > 100 | > 100 | > 100 | > 100 | > 100 | > 100 |  |  |  |  |  |  |  |  |  | 
7 | COc1cc(/C=C/C(=O)c2ccc(F)cc2)ccc1OCCCCOc1cc2c(cc1OC)C(=O)N1CCCC1C=N2 (centres undefined) | 18.3 | 0.673 | 1.31 | > 20.2 | 5.37 | 4.08 | 7.71 | 11.4 | 1.11 | 0.841 | 0.835 |  | 0.218 | 1.55 | 0.758 | 2.11 | 0.762 | 0.777 | 0.472 | 0.188
8 | C=C(C)[C@@H]1CC[C@]2(C(=O)N3CCN(C)CC3)CC[C@]3(C)[C@H](CC[C@@H]4[C@@]5(C)C/C(=C/c6ccncc6)[C@H](O)C(C)(C)[C@@H]5CC[C@]43C)[C@@H]12 | 6.07 | 19.2 | 17 | 30.7 | 18.5 | 12.6 | 17.7 | 27.9 | 17.3 | 10.2 | 2.08 | 2.88 | 3.01 | 7.68 | 5.98 | 3.44 | 3.86 | 10.2 | 4.01 | 2.72
